Test results: patent publication US20250248979A1, “NOVEL GPX4 INHIBITORS AND USES THEREOF” (THE TRUSTEES OF COLUMBIA UNIVERSITY IN THE CITY OF NEW YORK, priority 2022, published 2025)
Values after ≈ are worked out from the molar mass of the structure shown. Read-outs that look alike come from different tables or passages of the source.

How the values were obtained:
in vitro [1] = type: in vitro ADME, mouse
Experimental: (§1) […]. The incubation timepoints measured were 0, 5, 10, 15, 30, and 45 minutes. All samples were prepared in duplicate and analyzed by LC-MS/MS.

[2] = Kinetic aqueous solubility
in vitro [3] = type: in vitro ADME, human
Experimental: as §1

GPX4 = target: T1, GPX4 (Homo sapiens, UniProt P36969); experiment: GPX4 activity assay in cell lysates (NADPH-coupled); type: biochemical; design: endogenous in cells; host or cells: A-673 cell lysate; settings: for GPX4% inhibition at 200 (μM) / GPX4 inhibition: 200 μM
T1 sequence (P36969 1-170 isoform P36969-2): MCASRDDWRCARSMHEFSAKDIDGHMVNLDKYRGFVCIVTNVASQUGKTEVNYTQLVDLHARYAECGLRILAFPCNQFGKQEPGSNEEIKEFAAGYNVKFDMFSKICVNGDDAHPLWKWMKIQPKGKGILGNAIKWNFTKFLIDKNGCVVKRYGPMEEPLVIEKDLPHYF
Summary of the method: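 Native GPX4 in lysates of A-673 cells grown with 20 nM sodium selenite; lysate preincubated with compound 45 min at 37 °C in pH 8.0 buffer with 3 mM GSH, 0.5 mM NADPH and glutathione reductase. Reaction started with phosphatidylcholine hydroperoxide; NADPH consumption followed at 340 nm over 25 min; triplicates.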

SK-HEP-1 cells = experiment: Cellular dose response assay, SK-HEP-1; type: cell-based, human; settings: Table 7
From the text: (§2) HT-1080 (human [Homo sapiens] […] fibrosarcoma), A-673 (human [Homo sapiens] […] Ewing's sarcoma), and SK-HEP-1 (human [Homo sapiens] […] hepatic adenocarcinoma), cells were obtained from ATCC. Huh7 (human [Homo sapiens] […] hepatocellular carcinoma), HLF (human [Homo sapiens] […] hepatocellular carcinoma), HepG2 (human [Homo sapiens] […] hepatocellular carcinoma), cells were obtained from the Cancer Cell Bank at Columbia University Irving Medical Center. HT-1080, A-673, Huh-7, and HLF cells were grown in Dulbecco's Modified Eagle Medium (DMEM) supplemented with 10% heat inactivated fetal bovine serum (HI-FBS), 1% non-essential amino acids, and 1% penicillin streptomycin. HepG2 and SK-HEP-1 cells were grown in Eagle's Minimum Essential Medium (EMEM) supplemented with 10% HI-FBS, and 1% penicillin-streptomycin. All cells were cultured at 37° C. and 5% CO2.
(§3) HT-1080, HepG2, Huh7, HLF, and SK-HEP-1 cells were seeded into opaque white 384-well plates at 1500 cells per well then incubated at 37° C. with 5% CO2 overnight. The next day, compounds of interest were dissolved in DMSO and 12-point 2-fold dilution series were prepared with and without Fer-1. Cells were treated in triplicate (final DMSO concentration of 0.4% in all wells, including DMSO-only control wells) and incubated for a further 48 hours at 37° C. and 5% CO2. Cell viability was evaluated using CellTiter-Glo (Promega G7573) and luminescence was recorded on a Victor 5 plate reader. Data were analyzed in GraphPad Prism 9 and error bars represent standard deviation values for three technical replicates in a representative experiment.

Huh7 cells = experiment: Cellular dose response assay, Huh7; type: cell-based, human; settings: Table 7
From the text: as §2, §3

HLF cells = experiment: Cellular dose response assay, HLF; type: cell-based, human; settings: Table 7
From the text: as §2, §3

HT-1080 cells = experiment: Cellular dose response assay, HT-1080 with and without Fer-1; type: cell-based, human; settings: for Selectivity: ferroptosis selectivity, HT1080 + Fer-1 vs HT1080
Summary of the method: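 CellTiter-Glo luminescence viability readout after 48 h compound exposure at 37 °C. Plated 1500 cells/well overnight beforehand; 12-point 2-fold dilution series, triplicate wells, 0.4% DMSO throughout. […]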

HepG2 cells = experiment: Cellular dose response assay, HepG2; type: cell-based, human; settings: Table 7
From the text: as §2, §3

[4] = generation 1, mean ± s.d., n = 3
[5] = compounds alone, read-out: IC50 (uM) SKHEP1^a
[6] = with fer-1, read-out: IC50 (uM) SKHEP1^b
[7] = compounds alone, read-out: IC50 (uM) Huh7^a
[8] = with fer-1, read-out: IC50 (uM) Huh7^b
[9] = compounds alone, read-out: IC50 (uM) HLF^a
[10] = with fer-1, read-out: IC50 (uM) HLF^b
[11] = compounds alone, Table 7, read-out: IC50 (uM) HT1080^a
[12] = with fer-1, Table 7, read-out: IC50 (uM) HT1080^b
[13] = compounds alone, read-out: IC50 (uM) HEPG2^a
[14] = with fer-1, read-out: IC50 (uM) HEPG2^b
[15] = 1% DMSO, Phosphate Buffered Saline pH 7.4, 1 hour, ambient, UV/Vis absorbance
[16] = HT1080 + Fer-1, read-out: IC50 (uM) HT1080 + Fer-1
[17] = HT1080, without Fer-1, read-out: IC50 (uM) HT1080

Row | SMILES | Solubility ([2]; aqueous solubility, Table 9) [µM] | Microsome Stability t1/2 (min) mouse (in vitro [1]; mouse, microsomes) [min] | Microsome Stability t1/2 (min) human (in vitro [3]; human, microsomes) [min] | IC50 (SK-HEP-1 cells; [5]) [µM] | IC50 (SK-HEP-1 cells; [6]) [µM] | IC50 (Huh7 cells; [7]) [µM] | IC50 (Huh7 cells; [8]) [µM] | IC50 (HLF cells; [9]) [µM] | IC50 (HLF cells; [10]) [µM] | GPX4 inhibition (GPX4) | GPX4% inhibition at 200 (μM) (GPX4; generation 2) [%] | IC50 (HT-1080 cells; [11]) [µM] | IC50 (HT-1080 cells; [12]) [µM] | IC50 (HepG2 cells; [13]) [µM] | IC50 (HepG2 cells; [14]) [µM] | Solubility [2, 15] [µM] | GPX4% inhibition at 5 μM (GPX4) [%] | also measured
1 | COc1ccc(N(C(=O)CCl)C(C(=O)NCCc2ccccc2)c2cccs2)cc1Cl (stereo not drawn) [ML162, reference compound] | 3.8 (≈ 1.81 µg/mL) | – | – | – | – | – | – | – | – | – | – | – | – | – | – | – | – | Microsome Stability t1/2 (min) mouse (in vitro [1]; mouse liver microsomes): 1.5 min; Microsome Stability t1/2 (min) human (in vitro [3]; human liver microsomes): 0.9 min
2 | CC(C)(COC(=O)CBr)NC(=O)c1cc2cc([N+](=O)[O-])ccc2[nH]1 [QW-171] | 56 (≈ 22.3 µg/mL) | 283 | 187 | – | – | – | – | – | – | – | – | – | – | – | – | – | – | GPX4% inhibition at 200 (μM) (GPX4; [4]): 83.9 ± 16.8%
3 | Cn1nc(C(=O)NC(C)(C)COC(=O)CCl)c2ccccc21 [QW-312] | 98 (≈ 31.7 µg/mL) | 1.7 | 2.9 | 28.4 | 202 | 4.2 | 122 | 2.5 | 58.1 | complete inhibition | 95.8 ± 4.0 | 5.4 | 76.3 | 26.2 | 180 | – | – | GPX4% inhibition at 20 (μM) (GPX4; generation 2): 72.5 ± 6.7%
4 | CC(C)(COC(=O)CCl)NC(=O)c1n[nH]c2cc(Br)ccc12 [QW-313] | 47 (≈ 18.3 µg/mL) | 12.1 | 9.7 | 47 | 63.7 | 17 | 58.2 | – | – | complete inhibition | 97.6 ± 2.5 | 20.4 | 58.8 | 12.8 | 63.1 | – | – | GPX4% inhibition at 20 (μM) (GPX4; generation 2): 53.8 ± 12.1%
5 | CC(C)(COC(=O)CCl)NC(=O)c1c[nH]c2cc(Br)ccc12 [QW-316] | 71 (≈ 27.5 µg/mL) | 6 | 24 | – | – | – | – | – | – | – | – | – | – | – | – | – | – | GPX4% inhibition at 200 (μM) (GPX4; [4]): 87.2 ± 9.2%
6 | CC(C)(COC(=O)CCl)NC(=O)c1nn(-c2ccccc2)c2ccccc12 [QW-357] | – | – | – | 3.8 | 50 | 3.5 | 58.7 | 2.9 | 36.4 | complete inhibition | 104.8 ± 1.9 | 9.1 | 40.1 | 9.2 | 55.7 | – | – | –
7 | Cn1nc(C(=O)NC(C)(C)COC(=O)CCl)c2cccc(OC(=O)CCl)c21 [QW-360] | – | – | – | 3.5 | 44.4 | 9.1 | 175 | 6.7 | 27.1 | complete inhibition | 101.9 ± 1.5 | 12.7 | 46.7 | 24.8 | 40.3 | – | – | –
8 | Cn1nc(C(=O)NC(C)(C)COC(=O)CBr)c2ccccc21 [QW-365] | – | – | – | 0.3 | 12.1 | 0.8 | 16.8 | 0.5 | 8.8 | – | 94.5 ± 4.5 | 0.7 | 12.2 | 2.9 | 18.6 | – | – | –
9 | COc1ccc(-c2ccc3c(C(=O)NC(C)(C)COC(=O)CCl)nn(C)c3c2)cc1 [QW-454] | 2.9 (≈ 1.25 µg/mL) | 1.7 | 1.8 | – | – | – | – | – | – | – | – | – | – | – | – | 2.9 (≈ 1.25 µg/mL) | 86.8 ± 2.6 | IC50 (HT-1080 cells; [16]): 11.5 µM; IC50 (HT-1080 cells; [17]): 0.94 µM; ferroptosis induction / potency in HT-1080 cells, result in words (HT-1080 cells; RSL3 as control): sub-molar range cellular activities and decreased ferroptosis selectivity; Selectivity (HT-1080 cells): 12.2
10 | Cn1nc(C(=O)NC(C)(C)COC(=O)CCl)c2ccc(-c3cccc(Cl)c3)cc21 [QW-458] | 6.1 (≈ 2.65 µg/mL) | 1.9 | 1.9 | – | – | – | – | – | – | – | – | – | – | – | – | 6.1 (≈ 2.65 µg/mL) | 80.5 ± 3.0 | IC50 (HT-1080 cells; [16]): 24 µM; IC50 (HT-1080 cells; [17]): 2 µM; Selectivity (HT-1080 cells): 12
11 | COc1ccc(-c2ccc3c(C(=O)NC(C)(C)COC(=O)CCl)nn(C)c3c2)cc1C [QW-488] | 5.4 (≈ 2.4 µg/mL) | 1.1 | 1.8 | – | – | – | – | – | – | – | – | – | – | – | – | 5.4 (≈ 2.4 µg/mL) | 87.3 ± 3.3 | –
12 | CC(C)Oc1ccc(-c2ccc3c(C(=O)NC(C)(C)COC(=O)CCl)nn(C)c3c2)cc1 [QW-506] | 1.7 (≈ 0.779 µg/mL) | 1.7 | 2.9 | – | – | – | – | – | – | – | – | – | – | – | – | 1.7 (≈ 0.779 µg/mL) | 75.4 ± 3.9 | –
13 | C[C@]12CC[C@H]3[C@@H](CCC4=CC(=O)CC[C@@]43C)[C@@H]1CC[C@@H]2O [Testosterone, reference compound] | – | – | – | – | – | – | – | – | – | – | – | – | – | – | – | – | – | Microsome Stability t1/2 (min) mouse (in vitro [1]; mouse liver microsomes): 5.3 min; half-life (in vitro [3]; pH 7.4, human liver microsomes, read-out: Microsome Stability t1/2 (min) human): 9.5 min
